Experimental data published in paper PMC6152724, “Secondary Sulfonamides as Effective Lactoperoxidase Inhibitors” (Molecules : A Journal of Synthetic Chemistry and Natural …, 2017).

Molecular target: T1, LPO purified from bovine milk (Bos taurus, UniProt P80025)
T1 construct: from tissue; host or cells: fresh bovine milk
Assay: LPO inhibition assay (ABTS oxidation by H2O2, absorbance at 412 nm; Lineweaver–Burk plots)
Type: biochemical
Settings: for IC50: from activity (%)-[inhibitor] regression graphs, ABTS substrate; for Inhibition Type: with respect to ABTS substrate, from Lineweaver–Burk plots
Description: LPO activities were determined by the procedure of Shindler and Bardsley with slight modification. This method is based on the oxidation of chromogenic substrate 2,2′-azino-bis(3-ethylbenzothiazoline-6-sulfonic acid) (ABTS) by hydrogen peroxide (H2O2), which results in a product which had absorbance at 412 nm.
The effects of secondary sulfonamide derivatives (4a–8h) on LPO purified from fresh bovine milk by affinity chromatography technique were previously determined. In our study, LPO activity was measured in the presence of different concentrations of secondary sulfanilamide derivatives (4a–8h). A control sample without secondary sulfonamide was taken as 100%. An activity (%)-[Secondary sulfonamide] plot was drawn. For the determination of the inhibition constant (Ki) values, three different secondary sulfonamide derivative (4a–8h) concentrations were used. Additionally, ABTS was used as a substrate at five different concentrations. Lineweaver–Burk plots (1/V-1/[ABTS]) were obtained for secondary sulfonamide; the Ki and the inhibition type were calculated from these plots. The data obtained were analysed by t-test and the results are given as Means ± SD.

[1] = LPO purified from bovine milk, Lineweaver–Burk plots, three inhibitor and five ABTS concentrations, Means ± SD
[2] = bovine milk LPO, values restated in text in nM

| SMILES | Ki [1] [nM] | IC50 (LPO purified from bovine milk) [µM] | Inhibition Type | Ki [2] [nM] |
| --- | --- | --- | --- | --- |
| Nc1ccc(S(=O)(=O)Nc2nccs2)cc1 [4a, Sulfathiazole, reference compound] | 38400 ± 6060 | 231 | Non-competitive |  |
| Nc1ccc(S(=O)(=O)Nc2ncccn2)cc1 [4b, Sulfadiazine, reference compound] | 90700 ± 2520 | 92.2 | Non-competitive |  |
| Cc1cc(C)nc(NS(=O)(=O)c2ccc(N)cc2)n1 [4c, Sulfamethazine, reference compound] | 198000 ± 24500 | 346 | Non-competitive |  |
| Nc1ccc(S(=O)(=O)Nc2ccccn2)cc1 [4d, Sulfapyridine, reference compound] | 65000 ± 3610 | 227 | Competitive |  |
| Cc1noc(NS(=O)(=O)c2ccc(N)cc2)c1C [4e, Sulfisoxazole, reference compound] | 183000 ± 34100 | 222 | Non-competitive |  |
| Cc1nnc(NS(=O)(=O)c2ccc(N)cc2)s1 [4f, Sulfamethizole, reference compound] | 21200 ± 5660 | 115 | Non-competitive |  |
| Cc1ccnc(NS(=O)(=O)c2ccc(N)cc2)n1 [4g, Sulfamerazine, reference compound] | 20500 ± 2140 | 18.7 | Non-competitive |  |
| Nc1ccc(S(N)(=O)=O)cc1 [4h, Sulfanilamide, reference compound] | 35700 ± 4880 | 8.48 | Competitive |  |
| CC(=O)Oc1ccc(C(=O)Nc2ccc(S(=O)(=O)Nc3nccs3)cc2)cc1 [5a, N-(sulfathiazole)-p-acetoxybenzamide] | 56100 ± 23600 | 99 | Non-competitive |  |
| CC(=O)Oc1ccc(C(=O)Nc2ccc(S(=O)(=O)Nc3ncccn3)cc2)cc1 [5b, N-(sulfadiazine)-p-acetoxybenzamide] | 26 ± 4 | 0.015 | Non-competitive | 260 |
| CC(=O)Oc1ccc(C(=O)Nc2ccc(S(=O)(=O)Nc3nc(C)cc(C)n3)cc2)cc1 [5c, N-(sulfamethazine)-p-acetoxybenzamide] | 8 ± 3 | 0.01 | Competitive | 80 |
| CC(=O)Oc1ccc(C(=O)Nc2ccc(S(=O)(=O)Nc3ccccn3)cc2)cc1 [5d, N-(sulfapyridine)-p-acetoxybenzamide] | 49100 ± 20000 | 10 | Competitive |  |
| CC(=O)Oc1ccc(C(=O)Nc2ccc(S(=O)(=O)Nc3onc(C)c3C)cc2)cc1 [5e, N-(sulfisoxazole)-p-acetoxybenzamide] | 934 ± 357 | 3.03 | Competitive |  |
| CC(=O)Oc1ccc(C(=O)Nc2ccc(S(=O)(=O)Nc3nnc(C)s3)cc2)cc1 [5f, N-(sulfamethizole)-p-acetoxybenzamide] | 324 ± 115 | 0.238 | Non-competitive |  |
| CC(=O)Oc1ccc(C(=O)Nc2ccc(S(=O)(=O)Nc3nccc(C)n3)cc2)cc1 [5g, N-(sulfamerazine)-p-acetoxybenzamide] | 13400 ± 6190 | 3.94 | Competitive |  |
| CC(=O)Oc1ccc(C(=O)Nc2ccc(S(N)(=O)=O)cc2)cc1 [5h, N-(sulfanilamide)-p-acetoxybenzamide] | 2290 ± 1020 | 3.05 | Non-competitive |  |
| CC(=O)Oc1cc(C(=O)Nc2ccc(S(=O)(=O)Nc3nccs3)cc2)cc(OC(C)=O)c1OC(C)=O [6a, N-(sulfathiazole)-3,4,5-triacetoxybenzamide] | 1.1 | 0.000656 | Non-competitive |  |
| CC(=O)Oc1cc(C(=O)Nc2ccc(S(=O)(=O)Nc3ncccn3)cc2)cc(OC(C)=O)c1OC(C)=O [6b, N-(sulfadiazine)-3,4,5-triacetoxybenzamide] | 2900 ± 1130 | 13.9 | Competitive |  |
| CC(=O)Oc1cc(C(=O)Nc2ccc(S(=O)(=O)Nc3nc(C)cc(C)n3)cc2)cc(OC(C)=O)c1OC(C)=O [6c, N-(sulfamethazine)-3,4,5-triacetoxybenzamide] | 152000 ± 48700 | 139 | Non-competitive |  |
| CC(=O)Oc1cc(C(=O)Nc2ccc(S(=O)(=O)Nc3ccccn3)cc2)cc(OC(C)=O)c1OC(C)=O [6d, N-(sulfapyridine)-3,4,5-triacetoxybenzamide] | 1390 ± 150 | 1.56 | Non-competitive |  |

| SMILES | Ki [1] [nM] | IC50 (LPO purified from bovine milk) [µM] | Inhibition Type | Ki [2] [nM] |
| --- | --- | --- | --- | --- |
| CC(=O)Oc1cc(C(=O)Nc2ccc(S(=O)(=O)Nc3onc(C)c3C)cc2)cc(OC(C)=O)c1OC(C)=O [6e, N-(sulfisoxazole)-3,4,5-triacetoxybenzamide] | 1070 ± 20 | 2.03 | Competitive |  |
| CC(=O)Oc1cc(C(=O)Nc2ccc(S(=O)(=O)Nc3nnc(C)s3)cc2)cc(OC(C)=O)c1OC(C)=O [6f, N-(sulfamethizole)-3,4,5-triacetoxybenzamide] | 8550 ± 1450 | 6.66 | Non-competitive |  |
| CC(=O)Oc1cc(C(=O)Nc2ccc(S(=O)(=O)Nc3nccc(C)n3)cc2)cc(OC(C)=O)c1OC(C)=O [6g, N-(sulfamerazine)-3,4,5-triacetoxybenzamide] | 1490 ± 280 | 1.28 | Non-competitive |  |
| CC(=O)Oc1cc(C(=O)Nc2ccc(S(N)(=O)=O)cc2)cc(OC(C)=O)c1OC(C)=O [6h, N-(sulfanilamide)-3,4,5-triacetoxybenzamide] | 2290 ± 980 | 3.05 | Non-competitive |  |
| O=C(Nc1ccc(S(=O)(=O)Nc2nccs2)cc1)c1ccc(O)cc1 [7a, N-(sulfathiazole)-p-hydroxybenzamide] | 6850 ± 1810 | 15.1 | Non-competitive |  |
| O=C(Nc1ccc(S(=O)(=O)Nc2ncccn2)cc1)c1ccc(O)cc1 [7b, N-(sulfadiazine)-p-hydroxybenzamide] | 44 ± 22 | 0.04 | Noncompetitive |  |
| Cc1cc(C)nc(NS(=O)(=O)c2ccc(NC(=O)c3ccc(O)cc3)cc2)n1 [7c, N-(sulfamethazine)-p-hydroxybenzamide] | 484 ± 146 | 0.426 | Non-competitive |  |
| O=C(Nc1ccc(S(=O)(=O)Nc2ccccn2)cc1)c1ccc(O)cc1 [7d, N-(sulfapyridine)-p-hydroxybenzamide] | 1410 ± 130 | 2.96 | Competitive |  |
| Cc1noc(NS(=O)(=O)c2ccc(NC(=O)c3ccc(O)cc3)cc2)c1C [7e, N-(sulfisoxazole)-p-hydroxybenzamide] | 15100 ± 3900 | 10.8 | Non-competitive |  |
| Cc1nnc(NS(=O)(=O)c2ccc(NC(=O)c3ccc(O)cc3)cc2)s1 [7f, N-(sulfamethizole)-p-hydroxybenzamide] | 387 ± 150 | 0.799 | Competitive |  |
| Cc1ccnc(NS(=O)(=O)c2ccc(NC(=O)c3ccc(O)cc3)cc2)n1 [7g, N-(sulfamerazine)-p-hydroxybenzamide] | 3940 ± 1100 | 1.76 | Non-competitive |  |
| NS(=O)(=O)c1ccc(NC(=O)c2ccc(O)cc2)cc1 [7h, N-(sulfanilamide)-p-hydroxybenzamide] | 217 ± 99 | 0.285 | Non-competitive |  |
| O=C(Nc1ccc(S(=O)(=O)Nc2nccs2)cc1)c1cc(O)c(O)c(O)c1 [8a, N-(sulfathiazole)-3,4,5-trihydroxybenzamide] | 25 ± 10 | 0.014 | Competitive |  |
| O=C(Nc1ccc(S(=O)(=O)Nc2ncccn2)cc1)c1cc(O)c(O)c(O)c1 [8b, N-(sulfadiazine)-3,4,5-trihydroxybenzamide] | 1290 ± 465 | 0.715 | Non-competitive |  |
| Cc1cc(C)nc(NS(=O)(=O)c2ccc(NC(=O)c3cc(O)c(O)c(O)c3)cc2)n1 [8c, N-(sulfamethazine)-3,4,5-trihydroxybenzamide] | 2170 ± 880 | 2.53 | Competitive |  |
| O=C(Nc1ccc(S(=O)(=O)Nc2ccccn2)cc1)c1cc(O)c(O)c(O)c1 [8d, N-(sulfapyridine)-3,4,5-trihydroxybenzamide] | 5850 ± 1280 | 10.2 | Competitive |  |
| Cc1noc(NS(=O)(=O)c2ccc(NC(=O)c3cc(O)c(O)c(O)c3)cc2)c1C [8e, N-(sulfisoxazole)-3,4,5-trihydroxybenzamide] | 1440 ± 520 | 1.99 | Competitive |  |
| Cc1nnc(NS(=O)(=O)c2ccc(NC(=O)c3cc(O)c(O)c(O)c3)cc2)s1 [8f, N-(sulfamethizole)-3,4,5-trihydroxybenzamide] | 293000 ± 62000 | 173 | Non-competitive |  |
| Cc1ccnc(NS(=O)(=O)c2ccc(NC(=O)c3cc(O)c(O)c(O)c3)cc2)n1 [8g, N-(sulfamerazine)-3,4,5-trihydroxybenzamide] | 3870 ± 430 | 1.48 | Non-competitive |  |
| NS(=O)(=O)c1ccc(NC(=O)c2cc(O)c(O)c(O)c2)cc1 [8h, N-(sulfanilamide)-3,4,5-trihydroxybenzamide] | 3100 ± 578 | 1.78 | Non-competitive |  |
